Reference: US20260027122A1, “USE OF IMIDAZOLINONE DERIVATIVE IN COMBINATION WITH RADIOTHERAPY IN TREATMENT OF TUMORS” (CHENGDU BAIYU PHARMACEUTICAL CO., LTD., priority 2022, published 2026)
Marks after values point to notes of the source that are not given here.

Key:
CT26 transplanted tumor = assay: Inhibition experiment using BALB/c mouse model bearing CT26 transplanted tumor: tumor volume; format: in vivo, BALB/c mice; conditions: for Tumor volume (Mean ± SEM): Compound A 20 mpk once a day + IR 2 Gy for 5 consecutive days
From the text: (§1) Female BALB/c mice were selected to constitute a CT26 subcutaneous transplanted tumor model by subcutaneous injection of tumor cells. When the mean tumor volume reached 150-200 mm^3, mice were divided into 3 experimental groups: Vehicle, IR, and (Compound A (20 mpk)+IR), respectively, with 8 animals per group and 24 animals in total for grouping experiments. Each irradiated group was given an irradiation dose of 2 Gy for 5 consecutive days, the administration group was given the corresponding drug once a day for 39 consecutive days, and the Vehicle group was given a vehicle.
2.1 Tumor volume: during a drug treatment cycle, the long diameter (a) and short diameter (b) of tumor tissue were measured using an electronic vernier caliper to calculate the volume of the tumor (tumor volume=0.5×a×b^2).

[1] = BALB/c mouse model bearing CT26 transplanted tumor: body weight of mice; format: in vivo; conditions: for Body weight: Compound A 20 mpk once a day + IR 2 Gy for 5 consecutive days, in g (unit assumed)
From the text: as §1
2.2 Body weight of mice: mice were weighed at least twice a week during a drug treatment cycle.

[2] = compound A in combination with IR

CCn1c(=O)n(C2CCOCC2)c2nc(Nc3cc(F)c(C(N)=O)cc3C)ncc21 [Compound A]
Tumor volume (Mean ± SEM) (CT26 transplanted tumor; D0 (day of grouping)): 168 ± 22 mm^3
Tumor volume (Mean ± SEM) (CT26 transplanted tumor; D4): 260 ± 41 mm^3
Tumor volume (Mean ± SEM) (CT26 transplanted tumor; D7): 284 ± 47* mm^3
Tumor volume (Mean ± SEM) (CT26 transplanted tumor; D11): 253 ± 56*** mm^3
Tumor volume (Mean ± SEM) (CT26 transplanted tumor; D14): 155 ± 28*** mm^3
Tumor volume (Mean ± SEM) (CT26 transplanted tumor; D18): 101 ± 33***# mm^3
Tumor volume (Mean ± SEM) (CT26 transplanted tumor; D21): 93 ± 34# mm^3
Tumor volume (Mean ± SEM) (CT26 transplanted tumor; D25): 169 ± 71# mm^3
Tumor volume (Mean ± SEM) (CT26 transplanted tumor; D28): 288 ± 105# mm^3
Tumor volume (Mean ± SEM) (CT26 transplanted tumor; D32): 462 ± 148# mm^3
Tumor volume (Mean ± SEM) (CT26 transplanted tumor; D35): 605 ± 189# mm^3
Tumor volume (Mean ± SEM) (CT26 transplanted tumor; D39): 828 ± 247# mm^3
Effect on the anti-tumor efficacy of radiotherapy (CT26 transplanted tumor; [2]): significantly enhance the anti-tumor efficacy of radiotherapy
Tumor volume compared to the Vehicle and IR groups (CT26 transplanted tumor; [2]): significantly reduced
Body weight ([1]; D0): 16.8 ± 0.3
Body weight ([1]; D4): 17.1 ± 0.3
Body weight ([1]; D7): 16.0 ± 0.2
Body weight ([1]; D11): 17.6 ± 0.2
Body weight ([1]; D14): 17.9 ± 0.2
Body weight ([1]; D18): 18.6 ± 0.2
Body weight ([1]; D21): 19.1 ± 0.2
Body weight ([1]; D25): 19.4 ± 0.3
Body weight ([1]; D28): 19.7 ± 0.2
Body weight ([1]; D32): 19.9 ± 0.4
Body weight ([1]; D35): 20.1 ± 0.3
Body weight ([1]; D39): 19.6 ± 0.3
Tolerance of the animals ([1]; compound A in combination with radiotherapy): good tolerance
Effect on body weight gain of animals ([1]; compound A in combination with radiotherapy, to D39): no effect on body weight gain
